# Measured values: patent US20080299123A1, “TREATMENT OF CHEMOTHERAPY- OR RADIOTHERAPY-RESISTANT TUMORS” (Deutsches Krebsforschungszentrum Stiftung des offentlichen …, priority 2006, published 2008)
# Assays:
# ERK phosphorylation = ERK phosphorylation in SKOV3ip cells; format: cell-based, human; conditions: treatment with DAPT, TAPI-0
# Description: (A) Analysis of L1-32 cleavage by γ-secretase. Cells were treated for 48 h at 37° C. with presenilin inhibitor IX (DAPT) or for control with DMSO. Isolated membranes were incubated for 2 h at 37° C. and then separated into pellet or supernatant (SN) fractions by ultracentrifugation. Lanes 1 to 2 show cells treated with DMSO (vehicle). Lanes 3 and 4 show cells preincubated with DAPT. (B) SKOV3ip cells were treated with DAPT either in the presence or absence of the metalloprotease inhibitor TAPI-0 for 24 hr. Cells were lysed in BOG lysis buffer and analyzed by Western blot analysis. The cell supernatant was analyzed for soluble L1 using mAb L1-11A and the cell lysate was examined for L1-32 using peytL1. (C) HEK293 or HEK293-hL1wt cells were treated with DMSO, DAPT, TAPI-0 or both inhibitors for 96 h. mRNA was transcribed to cDNA and analyzed by qPCR for the genes CRABPII and cathepsin B. (D) Analysis of ERK phosphorylation in SKOV3ip cells after treatment with the indicated compounds.
# (A) Effect of L1-antibodies on ERK phosphorylation in SKOV3ip cells. The cells were incubated for 24 hr at 37° C. with the indicated purified antibodies to L1 (10 μg/ml) or isotype control IgG. […] Soluble L1 in the supernant and L1-32 in the cell lysate were analyzed by Western blot. (C) mRNA was isolated from antibody treated SKOV3ip cells, transcribed to cDNA and analyzed by qPCR for the indicated genes. […]
# L1CAM = L1CAM expression in PT45-P1res cells (western blotting, flow cytometry, real-time PCR); format: cell-based, human; conditions: inhibitor 10 μmol/L, 24 hours
# Description: After washing in PBS, cells grown in 6-well culture plates were detached with 5 mmol/L EDTA in PBS and then washed with PBS once again. Blocking was conducted in 1% BSA/PBS for 60 min. at room temperature followed by incubation with the anti L1CAM antibody L1-11A or an isotype matched control antibody (1:1000, in 1% BSA/PBS) at 4° C. overnight. Then, cells were washed three times in PBS followed by incubation (60 min, 37° C.) with a goat-anti mouse antibody conjugated with Alexa flour 488 (Dianova, Hamburg, Germany) diluted 1:500 in 1% BSA/PBS. After washing in PBS, cells were resuspended in 500 μL PBS and analysed by fluorescence flow cytometry.
# Cells were seeded into 6 well and 12 well plates, respectively, and transfected or treated as indicated. Then, cells were washed once with PBS and lysed with 1 volume of 2×SDS sample buffer (128 mmol/L Tris-Base, 4.6% SDS, 10% glycerol). Samples were heated for 5 minutes at 95° C. and put on ice for 2 minutes. Protein concentrations were determined using the Dc Protein assay (BioRad). Ten μg of protein adjusted to an appropriate volume of SDS sample buffer containing 0.2 mg/mL bromphenolblue (Serva, Heidelberg, Germany) and 2.5% β-mercaptoethanol (Biomol, Hamburg, Germany) were submitted to electrophoresis on a 4-20% ProGel-Tris-glycin-gel (Anamed, Darmstadt, Germany) and immunoblotting was performed as described previously (Arlt et al, 2001). For detection of L1CAM, a monoclonal antibody (clone UJ127 from Acris Antibodies) was diluted at a concentration of 0.4 μg/mL in 5% nonfat milk powder and 0.05% Tween in TBS (blotto) and incubated overnight at 4° C. For detection of the cytoplasmic domain of L1CAM, the pcytL1 antibody (Mechtersheimer et al., 2001) was used at a concentration of 1 μg/mL in blotto and incubated overnight at 4° C. As control of equal protein load, a polyclonal rabbit antibody for HSP90 (Santa Cruz, Heidelberg, Germany) was diluted 1:2000 in blotto. The mouse anti CD51 antibody from Beckman Coulter GmbH (Krefeld, Germany) was used at a concentration of 1:500 in blotto for detection of human αv integrin. Incubation with the primary antibodies was performed overnight at 4° C. For detection of the primary antibodies, anti-mouse and anti-rabbit HRP-linked antibodies (Cell Signaling), respectively, were used at a dilution of 1:2000 in blotto-TBST at room temperature for 1 hour. After washing in TBST, blots were developed using the LumiGlo peroxidase detection kit (Cell Signaling).
# 2 μg of total RNA were reverse-transcribed into single-stranded cDNA, as described previously (Schafer et al., 1999). Two μL of cDNA and 0.2 μmol/L gene-specific primers were adjusted with RNAse-free water to a volume of 15 μL. To this mixture, 15 μL of iQ SYBR Green Supermix (BioRad) were added. Primers for the detection of L1CAM (Gavert et al., 2005) were used under the following conditions: 95° C./1 min; 95° C./1 min, 52° C./30 see, 72° C./30 see for 40 cycles; 72° C./10 min. Primers for the detection of iNOS were from Biosource (Ratingen, Germany) and used under the following PCR conditions: 95° C./5 min; 95° C./45 sec, 60° C./45 sec, 72° C./45 sec for 40 cycles; 72° C./10 min. For control, β-actin was amplified in parallel using primers from BD Biosciences Clontech. […] Data were collected during annealing steps and were further analysed by using the i-Cycler iQ Optical system software (BioRad). All samples were analysed in duplicates and data are expressed as amount of mRNA in arbitrary units.
smiles,measurement,setting,value
CC(C)C[C@H](CC(=O)NO)C(=O)N[C@@H](Cc1ccc2ccccc2c1)C(=O)N[C@@H](C)C(N)=O [TAPI-0],ERK activation in treated cells,ERK phosphorylation,did not interfere with ERK activation
same,L1CAM expression (full-length 220 kDa and 32 kD fragment),L1CAM,neither of the inhibitors changed L1 CAM expression
